The values that follow come from patent US7226761B2, “Manufacture of five-carbon sugars and sugar alcohols” (Danisco Sweeteners Oy, priority 1992, dated 2007).

The test system of data set [1] is TKL1,2 deficient strain harboring the XDH encoding gene from P. stipitis on a multi-copy plasmid (H1057). The note with it: for Polyols from glucose consumed in %: 25 μM IA. How it is done:
TKL1,2 deficient strain H1055 carrying the pAOS67 multi-copy plasmid harboring the XDH encoding gene from P. stipitis (H1057) was cultivated in the presence of 25 μM IA (Fluka Chemie AG, Switzerland). The growth medium was SCD lacking histidine for plasmid selection and 7.65 g/l KNO3. Samples were withdrawn at the indicated time points, the OD600 measured, cells removed by centrifugation, and the growth medium samples were assayed for polyols by the Boehringer Mannheim D-sorbitol/xylitol kit and for glucose by the Boehringer Mannheim GOD-Perid kit.

The next data set concerns the target T1, DOG1 (Saccharomyces cerevisiae, UniProt P38774).
T1 construct: expressed in transfected cells; host or cells: S. cerevisiae H1104 (W303-1B) transformed with plasmid B1020 (YEplac195, ADH1 promoter-DOG1-ADH1 terminator) = strain H1514; crude cell extract
T1 sequence (P38774 1-246): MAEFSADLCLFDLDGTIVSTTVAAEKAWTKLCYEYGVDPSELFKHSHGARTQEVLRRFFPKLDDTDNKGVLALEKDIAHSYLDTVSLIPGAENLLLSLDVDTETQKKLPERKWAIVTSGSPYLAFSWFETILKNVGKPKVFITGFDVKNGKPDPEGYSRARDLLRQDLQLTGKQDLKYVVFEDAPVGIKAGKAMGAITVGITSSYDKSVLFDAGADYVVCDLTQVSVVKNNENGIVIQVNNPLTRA
The data set is described as follows: Specificity of DOG1 towards sugar phosphates in yeast cell extracts (phosphate release). Format: biochemical, S. cerevisiae. The note with it: 20 mM substrate; cell extract of H1514; relative to 2-deoxyglucose-6-P as 100%. The protocol:
The specificity of DOG1 towards xylulose-5-P, ribulose-5-P, ribose-5-P and 2-deoxyglucose-6-P was determined using 20 mM substrate concentrations. Yeast cell extracts were prepared as described in example 15, except that 50 mM imidazole-HCl, 10 mM MgCl2 buffer, pH 6.0 was used. 10 μl of extract and 210 μl of substrate (20 mM) in the same buffer was incubated for 30 min, 30° C. The reaction was stopped with final 2% of TCA and the phosphate released was measured using ammonium molybdate (15 mM), zinc acetate (100 mM), pH 5.0 as the reagent. The formation of molybdenum blue was measured at 350 nm, and quantified by phosphate standards (Sanz, P. et al., Yeast 10:1195–1202 (1994); Bencini, D. A. et al., Anal. Biochem. 132:254–258 (1983)).

A short description of data set [2]: Stereospecificity of D-xylulose 5-phosphate reduction, products dephosphorylated and analyzed by HPLC. The note with it: 10 mM xylulose 5-phosphate, 10 mM NADH, pH 7.0, 37° C. The data set is classed as biochemical. How it is done: The stereospecificity of xylulose-phosphate reduction by the B. halodurans XPDH was verified by the following procedure. The reaction between D-xylulose 5-phosphate and NADH was conducted at 37° C. for several hours under the following conditions: 100 mM Tris-HC buffer, pH 7.0, 10 mM xylulose 5-phosphate, 10 mM NADH, […] the enzyme lysate. The reaction products were dephosphorylated with alkaline phosphatase and analyzed by HPLC. […] It should be noted that among the highest-scoring four homologues of the L. rhamnosus XPDH, the enzyme from B. holodurans is the least homologous. This can be interpreted as an indication that the other three homologues (SEQ ID NO:51, 52 and 53) are most probably also xylitol-phosphate dehydrogenases.
The stereospecificity of D-xylulose 5-phosphate reduction by the E. avium arabitol-phosphate dehydrogenase was verified by the following procedure. The reaction between D-xylulose 5-phosphate and NADH was conducted at 37° C. for several hours under the following conditions: 100 mM Tris-HCl buffer, pH 7.0, 10 mM xylulose 5-phosphate, 10 mM NADH, 1U of the enzyme. The reaction products were dephosphorylated with alkaline phosphatase and analyzed by HPLC. […] There are no other arabitol-phosphate dehydrogenases described in the art.
Both arabitol-phosphate dehydrogenase genes were expressed using the same tools and methods as those used for the expression of xylitol-phosphate dehydrogenases (Example 26). Briefly, the coding regions of the two arabitol-phosphate dehydrogenase genes were amplified using the chromosomal DNA of the microorganism from which the enzyme was isolated and the appropriate PCR primers. In the case of E. avium the primers were oAPDH 51 […] SEQ ID NO: 71) and the anti-sense primer oAPDH 31 […]) SEQ ID NO: 72. For B. halodurans, the sense primer was oBHDH 5 ([…], SEQ ID NO: 73) and the anti-sense primer was oBHDH 3 ([…], SEQ ID NO: 74). […] The stereospecificity of D-xylulose 5-phosphate reduction by the previously unknown enzyme from B. halodurans was determined as described in Example 30.

A short description of data set [3]: Xylulose 5-phosphate reductase (XPDH/APDH) activity assay with NADH. The data set is classed as biochemical. The following applies: cell extract of transformed B. subtilis BD170; xylulose 5-phosphate usually 5 mM. The protocol: The strain BD 170 [pGTK24(MXD2)] as well as untransformed strain BD 170 was grown overnight on either LB or LB, containing 10% glucose, cell extracts were prepared and the XDH activity measured. The assay conditions for measuring XDH activity were: 30° C., 50 mM Tris-HCI, pH 7.0, 0.2 mM NADH and 10 mM D-xylulose. Changes of absorption at 340 nm were recorded; one unit of activity was defined as the amount of enzyme that catalyzed the reduction of one […] of substrate per minute under the conditions of assay (assuming the differential absorption coefficient NADH/NAD^+ to be equal to […]). The following levels of XDH activity were measured in the strain BD170 [pGTK24(MXD2)] grown on the two media: LB—0.5 U/mgproteins, LB-glucose 0.05–0.15 U/mgprotein. Thus, glucose appeared to repress the activity of the aldolase promoter 3–10 fold. No XDH activity could be detected in the strain BD170 grown on either of the two media.
B. subtilis strain BD170 was transformed with pGTK74(LRXPDH) and pGTK74(BHDH2). The transformants were grown overnight in LB containing 25 mg/liter kanamycin, cell extract were prepared by sonication and the activity of XPDH activity was measured. The conditions for measuring the XPDH activity were similar to those used for measuring the xylitol dehydrogenase activity except that xylulose 5-phosphate was used as the substrate (usually at 5 mM concentration) instead of xylulose. The activities were approximately 0.3 U/mg protein for the XPDH from L. rhamnosus and about 0.5 U/mg protein for B. halodurans enzyme.
Enterococcus avium ATCC 35655 was cultivated at 30° C. in 5 liters of a medium containing: peptone—10 g/l, yeast extract—5 g/l, beef extract 10 g/l, K2HPO4 2 g/l, NaCl—5 g/l, MgSO4—0.02 g/l, MnCl2—0.05 g/l, ammonium citrate 2 g/l, Tween 20—1.1 ml/l, xylitol—20g/l, pH 6.5. […]

Where two headings read alike, the source gives them in different places.

Regarding `O=C(O)CI` [iodacetate, iodoacetate], the “Polyols from glucose consumed in %” value in data set [1] (28 h) is 0.45%; in data set [1] (45 h), 0.74%; in data set [1] (52 h), 0.57%; in data set [1] (69 h), 0.72%; in data set [1] (77 h), 0.87%; in data set [1] (93 h), 0.93%. Moreover, the “Polyols from glucose consumed in %” value in data set [1] (100 h) amounted to 1.13%. The “glucose consumed metabolised to polyols (xylitol+part of ribitol)” value in data set [1] (in the presence of iodoacetate) is given as 1.2%. Also, the “increase in polyol production” value in data set [1] (in the presence of iodoacetate vs without) was “about 30%”.

Consider `O=C(CO)[C@@H](O)[C@H](O)COP(=O)(O)O` [xylulose-5-P, Xylulose-5-phosphate], for which the “Relative activity (20 mM)” value at DOG1 is reported as 15%.

B1: enzyme from B. halodurans: D-arabitol-phosphate dehydrogenase from B. halodurans, SEQ ID NO:70, expressed from pGTK74(BHDH) (protein)
chain: MKALVKTQHGTGHFAVQEKPEPTPGKHQVKIKVKYTGVCGSDIHTYEGHYPVAAPVTLGHEFSGEIVELGEGVTGFNVGDRVTSETTYSICGKCSYCTSGDYNLCSHRKGLGNQQDGSFAKYVIARQESLHHLPAGVDDRSAAMTEPLACTHHAIAKTSINKGDLVVVTGPGPIGLLAAQVAKSHGGTVIITGLSNDQVRLKKAKEVGIDYAIDTQEVDIKELVSELTDGYGADVVLECSGAVPAAKQGIDLLRKKGQYAQVGLFAQPEIQFNFEKIIQKEISVVGSRSQKPADWEPALSLLNEKKVNAKTLVTHEYTISEWDKAYHAIKSGEAIKVLLTPID
modifications: Bacillus halodurans (deduced sequence)
For B1, the “products found in the reaction mixture / stereospecificity” value in data set [2] is given as “this enzyme is indeed a D-arabitol-phosphate dehydrogenase”.

B2: XPDH from L. rhamnosus: xylitol-phosphate dehydrogenase from Lactobacillus rhamnosus, SEQ ID NO:49 (protein, listed as Lactobacillus rhamnosus)
chain: MKASMLEDLNKFSVKEIDIPSPKKDEVVVKVMAAGTCGSDSHKMISGWKYGYPAVMGHEFSGIVTQLGENVSNVSVGQHVAVAPFIPCFKCHYCQIGLFQMCENYSMLGQQKFGGFEQYVSVPARNVLDIGKMSFEEGALIEPMAVAAHAVMGIKPELGDTVAVFGLGTVGDLVVRLLISSGATNVIGIDIDDQKLEKGLDEGCTHVINSAKESLEEKIMEYTDGLGVDISMECAGSKITEEQTLLVTKRRGKVGFVGIAYSDVLLHQKAFENIFRHELTVTGFWNSYSAPFPGREWTNSIQLVNRGRIKIKDLITHRFELEDMQKAFNMITTRSESFNKVMFFPNGIN
B2: the XPDH activity entry in data set [3] is reported as “approximately 0.3 U/mg protein”.

B3: B. halodurans enzyme: xylitol-phosphate dehydrogenase from B. halodurans, SEQ ID NO:50, expressed from pGTK74(BHDH2) (protein)
chain: MKALNLYGIQDLRFEETPAPSIEHDDDIIIKVKAVGICGSDLSRYKKLGPYVPGMTFGHEFAGEVVKIGRSVTGFSIGDRVAACPTYTCGQCRYCQLGEPTRCERLSVIGARHPGAYAEYVKLPAKHVIPLPNVVNYDEAALIEPASVVAHGFYRTNIKPGASVAIMGVGSIGLLAVQWAKIFGATTVFAIDIDEQKLNVANQLGADVLISSLQRPAHKQILEYTNGIGVDVAVESAGTPSTSAQVFALPKKGGEVVFLGIPYADVQIERFYFEKIVRNELHVYGSWNALSSPFPGKEWATTIHYMSSGQLNVAPMISYRLPLAKGPETFQQIAKGELKPTKVLFYPEKLSERK
modifications: Bacillus halodurans
With B3, the XPDH activity result in data set [3] is “about 0.5 U/mg protein”. For the same molecule, the “products found in the reaction mixture / stereospecificity” value in data set [2] was “Only xylitol and xylulose (corresponding to the unreacted xylulose 5-phosphate) but no arabitol were found”.
